Assay results published in patent US11718618B2, “Substituted pyrido[2,1-a]isoquinolines as VMAT2 inhibitors” (priority 2021, dated 2023).

How the values were obtained:
[1] = target: human VMAT2 (Homo sapiens (Human), UniProt Q05940); assay: VMAT2 radioligand binding, 3H-dihydrotetrabenazine competition on human platelet homogenate; conditions: 10 nM 3H-dihydrotetrabenazine, human platelet homogenate, 25° C., 90 minutes; read-out: VMAT2 Ki
Summary of the method: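 Ki from scintillation counting of filter-bound ³H-dihydrotetrabenazine (10 nM) after 90 min, 25 °C incubation with twelve concentrations of compound. Membranes: human platelet homogenate, 30 μg protein per well; buffer DPBS, 1 mM EDTA, pH 7.4.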

[2] = Stability of compounds in human liver microsomes; format: in vitro ADME; conditions: for CLint scaled at 0.5 μM / half-life at 0.5 μM: both sexes, pH 7.4; for CLint scaled at 0.5 μM: liver microsomes, calculated from HLM half-life, read-out: HLM Scaled Intrinsic Clearance; for CLint scaled at 0.5 μM / Predicted Max. Bioavailability (% F) / HLM Predicted Systemic Clearance: human; for half-life at 0.5 μM: 0.5 μM compound, 0.5 mg/mL human liver microsomes, 37° C., maxed at 420 minutes, read-out: HLM Elimination half-life (t1/2, min); for Predicted Max. Bioavailability (% F): predicted from HLM data; for HLM Predicted Systemic Clearance: scaled from HLM half-life (Obach method)
Summary of the method: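 Compound at 0.5 μM incubated at 37 °C with pooled mixed-gender human liver microsomes (0.5 mg/mL protein) and an NADPH-generating system in pH 7.4 phosphate buffer, sampled 0–60 min. Parent depletion tracked by LC-MS/MS; t1/2 derived from the slope by non-linear regression, with predicted extraction ratio and maximum bioavailability also calculated.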

Sequence of human VMAT2 (Q05940 whole entry): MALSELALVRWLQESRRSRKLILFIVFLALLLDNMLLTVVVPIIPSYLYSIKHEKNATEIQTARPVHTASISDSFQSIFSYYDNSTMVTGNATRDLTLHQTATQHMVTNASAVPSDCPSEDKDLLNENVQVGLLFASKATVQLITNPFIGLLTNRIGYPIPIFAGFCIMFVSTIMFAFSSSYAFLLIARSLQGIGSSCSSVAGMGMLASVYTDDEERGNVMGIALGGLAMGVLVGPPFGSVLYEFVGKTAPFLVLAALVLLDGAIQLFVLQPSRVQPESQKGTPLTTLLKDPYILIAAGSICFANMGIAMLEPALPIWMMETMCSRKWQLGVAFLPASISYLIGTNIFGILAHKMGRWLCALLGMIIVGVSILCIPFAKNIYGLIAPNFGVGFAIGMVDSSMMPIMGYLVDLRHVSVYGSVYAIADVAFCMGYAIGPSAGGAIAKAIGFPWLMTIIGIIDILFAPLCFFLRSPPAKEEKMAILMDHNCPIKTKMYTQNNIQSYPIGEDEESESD

SMILES	Ki [1] [nM]	CLint scaled at 0.5 μM [2] [mL/min/kg]	half-life at 0.5 μM [2] [min]	Predicted Max. Bioavailability (% F) [2] [% F]	HLM Predicted Systemic Clearance [2] [mL/min/kg]
COc1cc2c(cc1OCC(F)(F)Cl)CCN1C[C@@H](CC(C)(C)C)[C@H](O)C[C@H]21 [Compound 4-65, (2R,3R,11bR)-9-(2-chloro-2,2-difluoroethoxy)-3-(2,2-dimethylpropyl)-10-methoxy-1H,2H,3H,4H,6H,7H,11bH-pyrido[2,1-a]isoquinolin-2-ol]	8.7	5.5	227	78	4.31
COc1cc2c(cc1OCC(C)(O)C(F)(F)F)CCN1C[C@@H](CC(C)(C)C)[C@H](O)C[C@H]21 (stereo partly drawn) [Compound 4-66, (2R,3R,11bR)-3-(2,2-dimethylpropyl)-10-methoxy-9-(3,3,3-trifluoro-2-hydroxy-2-methylpropoxy)-1H,2H,3H,4H,6H,7H,11bH-pyrido[2,1-a]isoquinolin-2-ol]	10	≤ 2.97	≥ 420	≥87	≤2.59
COc1cc2c(cc1OCC13CC(C(F)(F)F)(C1)C3)CCN1C[C@@H](CC(C)(C)C)[C@H](O)C[C@H]21 [Compound 4-67, (2R,3R,11bR)-3-(2,2-dimethylpropyl)-10-methoxy-9-{[3-(trifluoromethyl)bi-cyclo[1.1.1]pentan-1-yl]methoxy}-1H,2H,3H,4H,6H,7H,11bH-pyrido[2,1-a]isoquinolin-2-ol]	14	≤ 2.97	≥ 420	≥87	≤2.59
CC[C@H](O)COc1cc2c(cc1OC)[C@H]1C[C@@H](O)[C@H](CC(C)(C)C)CN1CC2 [Compound 4-68, (2R,3R,11bR)-3-(2,2-dimethylpropyl)-9-[(2S)-2-hydroxybutoxy]-10-methoxy-1H,2H,3H,4H,6H,7H,11bH-pyrido[2,1-a]isoquinolin-2-ol]	29	6.37	196	76	4.83
COc1cc2c(cc1OCc1ccon1)CCN1C[C@@H](CC(C)(C)C)[C@H](O)C[C@H]21 [Compound 4-69, (2R,3R,11bR)-3-(2,2-dimethylpropyl)-10-methoxy-9-(1,2-oxazol-3-ylmethoxy)-1H,2H,3H,4H,6H,7H,11bH-pyrido[2,1-a]isoquinolin-2-ol]	32	15.5	80	56	8.74
COc1cc2c(cc1OCCOCC#N)CCN1C[C@@H](CC(C)(C)C)[C@H](O)C[C@H]21 [Compound 4-70, 2-(2-{[(2R,3R,11bR)-3-(2,2-dimethylpropyl)-2-hydroxy-10-methoxy-1H,2H,3H,4H,6H,7H,11bH-pyrido[2,1-a]isoquinolin-9-yl]oxy}ethoxy)acetonitrile]	36	11.4	110	64	7.25
COc1cc2c(cc1OCCN1CCC(F)(F)C1)CCN1C[C@@H](CC(C)(C)C)[C@H](O)C[C@H]21 [Compound 4-71, (2R,3R,11bR)-9-[2-(3,3-difluoropyrrolidin-1-yl)ethoxy]-3-(2,2-dimethylpropyl)-10-methoxy-1H,2H,3H,4H,6H,7H,11bH-pyrido[2,1-a]isoquinolin-2-ol]	37	38.4	33	34	13.15
COc1cc2c(cc1OCC1(F)COCCOC1)CCN1C[C@@H](CC(C)(C)C)[C@H](O)C[C@H]21 [Compound 4-72, (2R,3R,11bR)-3-(2,2-dimethylpropyl)-9-[(6-fluoro-1,4-dioxepan-6-yl)methoxy]-10-methoxy-1H,2H,3H,4H,6H,7H,11bH-pyrido[2,1-a]isoquinolin-2-ol]	51	15.6	80	56	8.77
